Experimental data published in patent US10494364B2, “Cathepsin K inhibitors and application thereof” (SUNSHINE LAKE PHARMA CO., LTD., priority 2015, dated 2019).
Where two headings read alike, the source gives them in different places.

How the values were obtained:
[1] = Pharmacokinetic test in SD rats (iv and oral gavage), plasma by LC/MS/MS; format: in vivo; conditions: rat, male SD rats; for AUC(0-inf): read-out: AUCINF h * ng/ml; for AUC(0-t): read-out: AUClast h * ng/ml; for half-life: read-out: T1/2 h (converted); for Vd: read-out: Vss; for bioavailability: po 5 mg/kg vs iv 1 mg/kg
Description: Healthy adult male SD rats were divided into groups with administration of compound by intravenous injection and oral gavage.
2. Preparation of the Test Compound Solution:
A certain amount of the test compound was weighed, and then mixed with 5% DMSO, 10% Kolliphor HS15 and 85% Saline to prepare a clarified solution.
3. Administration and Sample Collection:
All groups were fasted for 12 hours before administering, free drinking, and fed at 3 hours after administration. Each group was administered with test compound by vein intravenous (iv, 1 mg/kg) in the hind foot and oral gavage (po, 5 mg/kg) independently. The blood samples were collected from tail vein at the time point of 0 h, 0.083 h, 0.25 h, 0.5 h, 1 h, 2 h, 4 h, 6 h, 8 h and 24 h after administration and the amount of blood sample collected at each time point was about 200-400 μL. The blood samples collected at each time point were independently placed in K2EDTA anticoagulation tube and preserved in the incubator containing ice packs. The plasma of each blood sample above was separated by centrifugation at 4600 r/min at 4° C. for 5 min in 15 minutes after collecting. The plasma samples were preserved at −80° C. for measuring.
The content of the compound in plasma of rat after administration was determined by LC/MS/MS method.

[2] = target: human cathepsin S (Homo sapiens, UniProt P25774); experiment: Assay of cathepsin S inhibitory activity in vitro; format: biochemical; conditions: IC50 against human cathepsin S; substrate Z-VVR-AMC 20 μM; 25° C.; read-out: Cat-S
human cathepsin S, sequence (P25774 115-331): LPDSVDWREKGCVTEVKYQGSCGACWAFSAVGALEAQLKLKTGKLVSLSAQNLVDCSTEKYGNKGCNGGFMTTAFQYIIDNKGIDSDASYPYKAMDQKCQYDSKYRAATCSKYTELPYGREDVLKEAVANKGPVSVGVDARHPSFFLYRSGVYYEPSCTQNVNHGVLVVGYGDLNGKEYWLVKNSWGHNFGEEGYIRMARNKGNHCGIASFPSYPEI
Description: Assay Method of Cathepsin S Inhibitory Activity In Vitro
0.25 ng/L was the final concentration of Cathepsin S in the enzyme reaction, and Z-VVR-AMC with the final concentration of 20 μM was added into the reaction system as substrate, in the reaction system the test compound and enzyme had been incubated at 25° C. for 15 min.

[3] = target: human cathepsin B (Homo sapiens, UniProt P07858); experiment: Assay of cathepsin B inhibitory activity in vitro; format: biochemical; conditions: IC50 against human cathepsin B; substrate Z-Phe-Arg-AMC 10 μM; 25° C.; read-out: Cat-B
Description: Assay Method of Cathepsin B Inhibitory Activity In Vitro
0.01 ng/μL was the final concentration of Cathepsin B in the enzyme reaction, and Z-Phe-Arg-AMC with the final concentration of 10 μM was added into the reaction system as substrate, in the reaction system the test compound and enzyme had been incubated at 25° C. for 15 min.

[4] = target: T1, human cathepsin K (Homo sapiens, UniProt P43235); experiment: Assay of cathepsin K inhibitory activity in vitro; format: biochemical; conditions: IC50 against human cathepsin K; substrate Z-Phe-Arg-AMC 10 μM; 25° C.; read-out: Cat-K
T1 sequence (P43235 115-329): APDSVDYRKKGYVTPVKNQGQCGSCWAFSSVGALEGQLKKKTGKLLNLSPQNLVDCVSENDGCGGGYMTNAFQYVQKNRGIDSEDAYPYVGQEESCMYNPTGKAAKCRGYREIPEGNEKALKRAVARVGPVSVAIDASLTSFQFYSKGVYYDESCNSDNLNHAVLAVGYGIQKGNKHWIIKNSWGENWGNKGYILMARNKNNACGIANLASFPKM
Description: Assay Method of Cathepsin K Inhibitory Activity In Vitro
Using 45000-fold diluted cathepsin K solution and 10 μM Z-Phe-Arg-AMC as substrate, the test compound and cathepsin K solution were incubated at 25° C. for 15 min in a 15 μL reaction system according to the optimized experimental condition.

[5] = target: human cathepsin L (Homo sapiens, UniProt P07711); experiment: Assay of cathepsin L inhibitory activity in vitro; format: biochemical; conditions: IC50 against human cathepsin L; substrate Z-Phe-Arg-AMC 10 μM; 25° C.; read-out: Cat-L
human cathepsin L, sequence (P07711 114-333): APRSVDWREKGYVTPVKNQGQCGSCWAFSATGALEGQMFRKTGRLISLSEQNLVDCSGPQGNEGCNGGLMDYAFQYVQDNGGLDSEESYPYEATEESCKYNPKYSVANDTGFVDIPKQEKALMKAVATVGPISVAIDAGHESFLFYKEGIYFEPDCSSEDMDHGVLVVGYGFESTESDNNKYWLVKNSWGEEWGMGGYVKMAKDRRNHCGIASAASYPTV
Description: Assay Method of Cathepsin L Inhibitory Activity In Vitro
0.01 ng/μL was the final concentration of Cathepsin L in the enzyme reaction, and Z-Phe-Arg-AMC with the final concentration of 10 μM was added into the reaction system as substrate, in the reaction system the test compound and enzyme had been incubated at 25° C. for 15 min.

Compound | Cmax ([1]; iv 1 mg/kg) | Tmax ([1]; iv 1 mg/kg) | clearance ([1]; iv 1 mg/kg) | AUC(0-inf) ([1]; iv 1 mg/kg) | AUC(0-t) ([1]; iv 1 mg/kg) | half-life ([1]; iv 1 mg/kg) | Vd ([1]; iv 1 mg/kg) | Cmax ([1]; po 5 mg/kg) | Tmax ([1]; po 5 mg/kg) | bioavailability [1] | AUC(0-inf) ([1]; po 5 mg/kg) | AUC(0-t) ([1]; po 5 mg/kg) | half-life ([1]; po 5 mg/kg) | IC50 [2] | IC50 [3] | IC50 [4] | IC50 [5]
N#CC1(NC(=O)C2(NC(=O)c3cc4ccc(-c5ccc(-n6ccnn6)cc5)cc4o3)CCC(F)(F)CC2)CC1 [Example 18, 6-(4-(1H-1,2,3-triazol-1-yl)phenyl)-N-(1-((1-cyanocyclopropyl)carbamoyl)-4,4-difluorocyclohexyl)benzofuran-2-carboxamide] | 500 ng/mL | 0.083 h | 5.14 mL/min/kg | 3320 ng·h/mL | 3210 ng·h/mL | 4.72 h | 1.92 L/kg | 1380 ng/mL | 3.33 h | 98.6% | 19900 ng·h/mL | 18600 ng·h/mL | 5.65 h | 2800 nM | 806 nM | 2.2 nM | > 10000 nM
N#CC1(NC(=O)C2(NC(=O)c3cc4ccc(-c5ccc(-n6cncn6)c(OC(F)F)c5)cc4o3)CCC(F)(F)CC2)CC1 [Example 53, N-(1-((1-cyanocyclopropyl)carbamoyl)-4,4-difluorocyclohexyl)-6-(3-(difluoromethoxy)-4-(1H-1,2,4-triazol-1-yl)phenyl)benzofuran-2-carboxamide] | 798 ng/mL | 0.083 h | 2.91 mL/min/kg | 5740 ng·h/mL | 5470 ng·h/mL | 5.9 h | 1.2 L/kg | 2230 ng/mL | 2.67 h | 75.6% | 21700 ng·h/mL | 21100 ng·h/mL | 4.66 h | > 10000 nM | 2500 nM | 1.4 nM | > 10000 nM
N#CC1(NC(=O)C2(NC(=O)c3cc4ccc(-c5ccc(-n6cncn6)cc5)cc4o3)CCC(F)(F)CC2)CC1 [Example 12, 6-(4-(1H-1,2,4-triazol-1-yl)phenyl)-N-(1-((1-cyanocyclopropyl)carbamoyl)-4,4-difluorocyclohexyl)benzofuran-2-carboxamide] | 1110 ng/mL | 0.08 h | 1.8 mL/min/kg | 9230 ng·h/mL | 8150 ng·h/mL | 7.84 h | 1.09 L/kg | 1890 ng/mL | 4.67 h | 60.6% | 28400 ng·h/mL | 25100 ng·h/mL | 6.14 h | 2500 nM | 1400 nM | 1.8 nM | > 10000 nM
Cc1cc(-c2ccc3cc(C(=O)NC4(C(=O)NC5(C#N)CC5)CCC(F)(F)CC4)oc3c2)ccc1-n1cncn1 [Example 43, N-(1-((1-cyanocyclopropyl)carbamoyl)-4,4-difluorocyclohexyl)-6-(3-methyl-4-(1H-1,2,4-triazol-1-yl)phenyl)benzofuran-2-carboxamide] | 382 ng/mL | 0.78 h | 4.13 mL/min/kg | 4190 ng·h/mL | 3800 ng·h/mL | 7.1 h | 2.27 L/kg | 390 ng/mL | 4 h | 72.1% | 15200 ng·h/mL | 14300 ng·h/mL | 5.84 h | 1340 nM | 440 nM | 0.69 nM | > 10000 nM
CCOc1cc(-c2ccc3cc(C(=O)NC4(C(=O)NC5(C#N)CC5)CCC(F)(F)CC4)oc3c2)ccc1-n1cncn1 [Example 54, N-(1-((1-cyanocyclopropyl)carbamoyl)-4,4-difluorocyclohexyl)-6-(3-ethoxy-4-(1H-1,2,4-triazol-1-yl)phenyl)benzofuran-2-carboxamide] | 1240 ng/mL | 0.33 h | 1.73 mL/min/kg | 9700 ng·h/mL | 9280 ng·h/mL | 5.59 h | 0.69 L/kg | 2260 ng/mL | 3 h | 46.9% | 22700 ng·h/mL | 21900 ng·h/mL | 5.06 h | > 10000 nM | 5000 nM | 1.3 nM | > 10000 nM
